{"source": "patent US20240425589A1", "about": "“CYTOTOXICITY-INDUCING THERAPEUTIC AGENT FOR USE IN TREATMENT OF CANCER” (CHUGAI SEIYAKU KABUSHIKI KAISHA, priority 2021, published 2024)", "key": {"SNG-M": {"tested_on": "SNG-M", "experiment": "SNG-M xenograft in huNOG mice, combination with carboplatin", "assay_type": "in vivo", "settings": "30 days after transplantation; CS4135 0.5 mg/kg iv day 13, carboplatin 40 mg/kg ip days 13, 16, 20", "protocol": "In this test, NOG (huNOG) mice (described in the aforementioned Example 13) transplanted with human uterus cancer cell line SNG-M and human CD34-positive cells were used. The SNG-M cell line was transplanted subcutaneously to the right flank of the mice, and the mice were divided into groups 13 days after transplantation. Individuals whose tumor volume reached 130 to 244 mm^3 were divided into groups. Vehicle 1 and CS4135 were administered into the mouse tail vein 13 days after transplantation. PBS containing 0.05% Tween-20 was used as Vehicle 1. Vehicle 2 and carboplatin (Bristol Myers Squibb Company) were administered intraperitoneally to the mice 13, 16, and 20 days after transplantation. Physiological saline was used as Vehicle 2.\nTumor volume was measured 13, 16, 20, 23, 26, and 30 days after transplantation, and the average tumor volume was indicated for each group.\nThe tumor volume was calculated by the following equation: […]\n(§1) Tumor Growth Inhibition (TGI) was calculated by the following equation: […]"}, "[1]": {"tested_on": "CLDN6 expression in NIH:OVCAR-3", "experiment": "CLDN6 expression by quantitative PCR after chemotherapeutic agents", "assay_type": "cell-based, human", "settings": "6 days; carboplatin 0.5 μg/mL, cisplatin 0.1 μg/mL, irinotecan 0.25 μg/mL, gemcitabine 2 ng/mL; vs untreated", "protocol": "Various chemotherapeutic agents were added to human ovarian cancer cell line (NIH:OVCAR-3, ATCC) to analyze the change in CLDN6 expression. Regarding the NIH:OVCAR-3 cells seeded on culture plates, RNAs were purified (RNeasy Mini Kit, QIAGEN) from cells to which no pharmaceutical agent was added (untreated cells), or from cells collected 6 days after addition of carboplatin (0.5 μg/mL), cisplatin (0.1 μg/mL), irinotecan (0.25 μg/mL), or gemcitabine (2 ng/mL), and then cDNA synthesis (Superscript IV VILO Master Mix, ThermoFisher) was performed. By using the cDNAs as templates, real-time PCR was performed using CLDN6-specific primers (Power SYBR (registered trademark) Green Master Mix, ThermoFisher) to analyze CLDN6 expression (QuantStudio 12K Flex Real-Time PCR System, ThermoFisher). Sequences of the primers for human CLDN6 and the primers for human GAPDH that were used as the internal control are as follows: […]"}, "[2]": {"tested_on": "CLDN6 expression in NIH-OVCAR3, NCI-H1435, SNG-M", "experiment": "CLDN6 expression by FACS after platinum preparation treatment", "assay_type": "cell-based, human", "settings": "5 days; cisplatin 0.1 or 0.6 μg/mL, carboplatin 0.5 or 5 μg/mL; vs untreated", "protocol": "Human ovarian cancer cell line (NIH-OVCAR3, ATCC), human lung cancer cell line (NCI-H1435, ATCC), and human endometrial cancer cell line (SNG-M, Health Science Research Resources Bank) were treated with cisplatin (CDDP, Nichiiko) or carboplatin (CBDCA, Sandoz) to analyze the effect of the treatment on CLDN6 expression.\nEach cell was subjected to the addition of cisplatin at 0.1 μg/mL (OVCAR3) or 0.6 μg/mL (H1435, SNG-M), or carboplatin at 0.5 μg/mL (OVCAR3) or 5 μg/mL (H1435, SNG-M), and then cultured for five days. After culturing, the cells were recovered, and CLDN6 expression was analyzed by FACS.\nIn FACS analysis, cells were detached from the culturing flask and then reacted with an anti-CLDN6 antibody (AE3-20 mIgG2a, Japanese Patent No. 5848863) or an isotype antibody (mIgG2a, BioLegend) at 2 μg/mL, at 4° C. for one hour. Next, reaction with Alexa Flour 488-labeled anti-mouse IgG (ThermoFisher) at 10 μg/mL was performed at 4° C. for one hour, and the amount of CLDN6 expression was analyzed using a flow cytometer (FACSVerse, BD Biosciences)."}, "OVCAR3": {"tested_on": "OVCAR3", "experiment": "OVCAR3 xenograft in huNOG mice, combination with carboplatin", "assay_type": "in vivo", "settings": "56 days after transplantation; CS4135 0.1 mg/kg iv days 38, 45 (sequential: 48, 55), carboplatin 60 mg/kg ip days 38, 45", "protocol": "In this test, NOG (huNOG) mice (described in the aforementioned Example 13) transplanted with ovarian cancer cell line OVCAR3 and human CD34-positive cells were used. The OVCAR3 cell line was transplanted subcutaneously to the right flank of the mice, and the mice were divided into groups 38 days after transplantation. Individuals whose tumor volume reached 119 to 210 mm^3 were divided into groups. Vehicle 1 and CS4135 were administered into the mouse tail vein 38 and 45 days after transplantation. PBS containing 0.05% Tween-20 was used as Vehicle 1. Vehicle 2 and carboplatin (Bristol Myers Squibb Company) were administered intraperitoneally to the mice 38 and 45 days after transplantation. Physiological saline was used as Vehicle 2.\nTumor volume was measured 38, 42, 45, 48, 52, and 56 days after transplantation, and the average tumor volume was indicated for each group. The tumor volume was calculated by the following equation: […]\nas §1"}, "[3]": {"tested_on": "CLDN6 expression in SNG-M tumor", "experiment": "CLDN6 expression by real-time PCR in SNG-M tumor transplant", "assay_type": "in vivo, NOD/scid mice", "settings": "40 mg/kg or 80 mg/kg ip twice, vs vehicle", "protocol": "SNG-M (1×10^7 cells) was transplanted subcutaneously to NOD/scid mice (CLEA Japan). After tumor engraftment, the vehicle (physiological saline) or carboplatin at 40 mg/kg or 80 mg/kg was administered intraperitoneally on the day of transplantation (day 0) and 3 days after transplantation (day 3), and the tumor was sampled 6 days after transplantation (day 6).\nRNA was purified from the tumor (RNeasy Mini Kit, QIAGEN), and then cDNA synthesis was performed (Superscript IV VILO Master Mix, ThermoFisher). Using the cDNAs as templates, real-time PCR was performed using a CLDN6-specific primer (Power SYBR (registered trademark) Green Master Mix, ThermoFisher) to analyze CLDN6 expression (QuantStudio 12K Flex Real-Time PCR System, ThermoFisher).\nSequences of the primers for human CLDN6 and primers for human GAPDH used as an internal control are as follows: […]"}, "[4]": {"tested_on": "TGF-β1 expression in NIH:OVCAR-3", "experiment": "TGF-β1 expression by quantitative PCR after chemotherapeutic agents", "assay_type": "cell-based, human", "settings": "6 days; same treated cells as Example 21.1; vs untreated", "protocol": "Next, the cDNAs prepared from the human ovarian cancer cell line (NIH:OVCAR-3, ATCC) treated with carboplatin, cisplatin, irinotecan, or gemcitabine, which were used in Example 21.1, were used to perform real-time PCR with TGF-β1-specific primers (Power SYBR (registered trademark) Green Master Mix, ThermoFisher), and TGF-β1 expression was analyzed (QuantStudio 12K Flex Real-Time PCR System, ThermoFisher).\nSequences of the primers for human TGF-β1 are as follows: […]\nThe same primers as those in the above-mentioned Example 21.1 were used as the primers for human GAPDH used as the internal control."}, "NIH:OVCAR-3": {"tested_on": "NIH:OVCAR-3", "experiment": "OVCAR3 xenograft in huNOG mice, combination with irinotecan hydrochloride", "assay_type": "in vivo", "settings": "60 days after transplantation; CS4135 0.1 mg/kg, irinotecan hydrochloride 25 mg/kg, iv days 39, 46", "protocol": "In this test, NOG(huNOG) mice (described in the aforementioned Example 13) transplanted with ovarian cancer cell line NIH:OVCAR-3 (OVCAR3, ATCC) and human CD34-positive cells were used. The OVCAR3 cell line was transplanted subcutaneously to the right flank of the mice, and the mice were divided into groups 39 days after transplantation. Individuals whose tumor volume reached 160 to 263 mm^3 were divided into groups. Vehicle 1 and CS4135 were administered into the mouse tail vein 39 and 46 days after transplantation. PBS containing 0.05% Tween-20 was used as Vehicle 1. Vehicle 2 and irinotecan hydrochloride (Sawai Pharmaceutical Co., Ltd.) were administered into the mouse tail vein 39 and 46 days after transplantation. Physiological saline was used as Vehicle 2.\nTumor volume was measured 39, 42, 46, 49, 53, 57, and 60 days after transplantation, and the average tumor volume is indicated for each group. The tumor volume was calculated by the following equation: […]\nas §1"}, "[5]": {"tested_on": "TGF-β1 expression in cancer cells", "settings": "reported in literature; cited from earlier work"}, "[6]": {"tested_on": "CLDN6 expression in UWB1.289", "experiment": "CLDN6 expression by FACS after PARP inhibitor, UWB1.289", "assay_type": "cell-based, human", "settings": "BRCA1-deficient UWB1.289, 0.03-3 μM, 3 days", "protocol": "(§2) Induction of CLDN6 expression by a PARP inhibitor (olaparib) was assessed. BRCA1-deficient ovarian cancer cell line UWB1.289 (ATCC) or BRAC1 wildtype ovarian cancer cell line OV-90 (ATCC) which express human CLDN6 were used.\n(§3) Target cells (3×10^5 cells) were plated onto a 6-well plate at 3 mL/well. After culturing overnight, olaparib was added at a final concentration of 0.03, 0.1, 0.3, 1, or 3 μM. DMSO was added to the control well. After incubating the plate for 3 days, the cells were recovered and the amount of CLDN6 expression on the cell surface was determined by FACS analysis using an anti-CLDN6 antibody. The level of fluorescence in the target cells recovered from the wells, to which various concentrations of olaparib were added, are shown in FIG. 27, wherein the level of fluorescence in the target cells recovered from the control well was defined as 1."}, "[7]": {"tested_on": "CLDN6 expression in OV-90", "experiment": "CLDN6 expression by FACS after PARP inhibitor, OV-90", "assay_type": "cell-based, human", "settings": "BRAC1 wildtype OV-90, 0.03-3 μM, 3 days", "protocol": "as §2, §3"}}, "note": "Structures can show the parent of a compound that is named as a salt."}
{"smiles": "N.N.O=C([O-])C1(C(=O)[O-])CCC1.[Pt+2]", "note": "[Carboplatin, carboplatin]", "values": [{"measurement": "Tumor growth inhibition: TGI", "setting": "SNG-M", "value": 44, "unit": "%"}, {"measurement": "CLDN6 expression", "setting": "[1]", "value": "Increase in CLDN6 expression was observed"}, {"measurement": "CLDN6 expression", "setting": "[2]", "value": "increase in CLDN6 expression"}, {"measurement": "Tumor growth inhibition: TGI", "setting": "OVCAR3", "value": "−9", "unit": "%"}, {"measurement": "CLDN6 expression in the tumor", "setting": "[3]", "value": "increased"}, {"measurement": "TGF-β1 expression", "setting": "[4]", "value": "Increase in TGF-β1 expression was observed"}]}
{"smiles": "CCc1c2c(nc3ccc(OC(=O)N4CCC(N5CCCCC5)CC4)cc13)-c1cc3c(c(=O)n1C2)COC(=O)[C@]3(O)CC", "note": "[Irinotecan hydrochloride, irinotecan hydrochloride, reference compound]", "values": [{"measurement": "Tumor growth inhibition: TGI", "setting": "NIH:OVCAR-3", "value": 65, "unit": "%"}]}
{"smiles": "N.N.[Cl][Pt][Cl]", "note": "[cisplatin]", "values": [{"measurement": "CLDN6 expression", "setting": "[1]", "value": "Increase in CLDN6 expression was observed"}, {"measurement": "CLDN6 expression", "setting": "[2]", "value": "increase in CLDN6 expression"}, {"measurement": "TGF-β1 expression", "setting": "[4]", "value": "Increase in TGF-β1 expression was observed"}]}
{"smiles": "COc1cccc2c1C(=O)c1c(O)c3c(c(O)c1C2=O)C[C@@](O)(C(=O)CO)C[C@@H]3O[C@H]1C[C@H](N)[C@H](O)[C@H](C)O1", "note": "[doxorubicin]", "values": [{"measurement": "expression of TGF-β1 in cancer cells", "setting": "[5]", "value": "induce expression of TGF-β11 in cancer cells"}]}
{"smiles": "Nc1ccn([C@@H]2O[C@H](CO)[C@@H](O)C2(F)F)c(=O)n1", "note": "[gemcitabine]", "values": [{"measurement": "CLDN6 expression", "setting": "[1]", "value": "Increase in CLDN6 expression was observed"}, {"measurement": "TGF-β1 expression", "setting": "[4]", "value": "Increase in TGF-β1 expression was observed"}]}
{"smiles": "CCc1c2c(nc3ccc(OC(=O)N4CCC(N5CCCCC5)CC4)cc13)-c1cc3c(c(=O)n1C2)COC(=O)[C@]3(O)CC", "note": "[irinotecan]", "values": [{"measurement": "CLDN6 expression", "setting": "[1]", "value": "Increase in CLDN6 expression was observed"}, {"measurement": "TGF-β1 expression", "setting": "[4]", "value": "Increase in TGF-β1 expression was observed"}]}
{"smiles": "O=C(c1cc(Cc2n[nH]c(=O)c3ccccc23)ccc1F)N1CCN(C(=O)C2CC2)CC1", "note": "[olaparib]", "values": [{"measurement": "CLDN6 expression induction", "setting": "[6]", "value": "concentration-dependent enhancement of CLDN6 expression induction was observed"}, {"measurement": "CLDN6 expression induction", "setting": "[7]", "value": "enhancement of CLDN6 expression induction was not observed at any concentration"}]}
{"smiles": "CC(=O)O[C@H]1C(=O)[C@@]2(C)[C@H]([C@H](OC(=O)c3ccccc3)[C@]3(O)C[C@H](OC(=O)[C@H](O)[C@@H](NC(=O)c4ccccc4)c4ccccc4)C(C)=C1C3(C)C)[C@]1(OC(C)=O)CO[C@@H]1C[C@@H]2O", "note": "[paclitaxel]", "values": [{"measurement": "expression of TGF-β1 in cancer cells", "setting": "[5]", "value": "induce expression of TGF-β11 in cancer cells"}]}
